Reference: US20190231757A1, “COMBINATION OF SPLEEN TYROSINE KINASE INHIBITORS AND OTHER THERAPEUTIC AGENTS” (Takeda Pharmaceutical Company Limited, priority 2016, published 2019)

Tests used:
Format in all cases: in vivo, mouse
[1] = tested on: WSU-Luc human lymphoma xenografts; assay: Antitumor activity in SCID mice bearing WSU-Luc human lymphoma xenografts, ibrutinib combination (Example 12); conditions: Day 20, alone or combined
Description: The study ended on Day 20 of dosing.
(§1) Tumor growth was monitored with vernier calipers. Tumor volume was calculated using the formula V=W^2×L/2, where V=volume, W=width and L=length of the tumor. When the mean tumor volume reached approximately 190 mm^3, the animals were randomized into treatment groups (n=8/group). […] Tumor growth and body weight were measured twice per week. Tumor growth inhibition and body weight change were calculated on Day 20 of treatment.
Statistical analysis: The differences in the tumor growth trends over time between pairs of treatment groups were assessed using linear mixed effects regression models. These models account for the fact that each animal was measured at multiple time points. A separate model was fit for each comparison, and the areas under the curve (AUC) for each treatment group were calculated using the predicted values from the model. The percent decrease in AUC (dAUC) relative to the reference group was then calculated.
The change in AUC relative to the control was calculated for both single agent treatment groups as well as the combination group. […] The results can be divided into four categories: synergistic, additive, sub-additive, and antagonistic.
For this analysis, a T/C ratio was calculated for each animal by dividing the tumor measurement for the given animal by the mean tumor measurement across all control animals. The T/C ratios across a treatment group were compared to the T/C ratios of the control group using a two-tailed Welch's t-test.

[2] = Body weight and tolerability, WSU-Luc ibrutinib study (Example 12); conditions: Compound A 60 mg/kg; ibrutinib 20 mg/kg; alone or combined
Description: as §1

[3] = tested on: OCI-Ly10 human DLBCL xenografts; assay: Antitumor activity in SCID mice bearing OCI-Ly10 human DLBCL xenografts, ibrutinib or bendamustine combination (Example 5); conditions: Day 21, Compound A 60 mg/kg PO QD, ibrutinib 6 mg/kg PO QD, bendamustine 1 mg/kg IV BIW (6 doses), alone or combined with Compound A
OCI-LY10 xenografts = assay: Antitumor activity in CB17 SCID mice bearing OCI-LY10 xenografts, gemcitabine combination (Example 7); conditions: Day 21
Description: Tumor growth inhibition was calculated on Day 21 of the study. The last measurement was taken on Day 42 of the study.
(§2) Experimental design: Female CB17 SCID mice (Taconic Biosciences; weight at treatment start was 20 g) were inoculated subcutaneously in the flank (cell suspension) with 4.0×10^6 OCI-Ly10 cells. Tumor volume was calculated using the formula V=W^2×L/2, where V=volume, W=width and L=length of the tumor. When the mean tumor volume reached approximately 199 mm^3, the animals were randomized into 6 treatment groups (n=8/group). […] Tumor growth and body weight were measured twice per week. Tumor growth inhibition and body weight change were calculated on Day 21 of treatment.
(§3) Statistical analysis: The differences in the tumor growth trends over time between pairs of treatment groups were assessed using linear mixed effects regression models. These models account for the fact that each animal was measured at multiple time points. A separate model was fit for each comparison, and the areas under the curve (AUC) for each treatment group were calculated using the predicted values from the model. The percent decrease in AUC (dAUC) relative to the reference group was then calculated. […] Further details regarding pairwise comparisons are provided in the Example 2.
(§4) Drug combinations were assessed for synergy using observed AUC values. The change in AUC relative to the control was calculated for both single agent treatment groups as well as the combination group. The interaction between the two compounds was then assessed by comparing the change in AUC observed in the combination group to the sum of the changes observed in both single agents. The results can be divided into four categories: synergistic, additive, sub-additive, and antagonistic. Further details regarding combination analyses are provided in the Example 2.
(§5) Once a final analysis was selected, the tumor measurements observed on a date pre-specified by the researcher (typically the last day of treatment) were analyzed to assess tumor growth inhibition. For this analysis, a T/C ratio was calculated for each animal by dividing the tumor measurement for the given animal by the mean tumor measurement across all control animals. The T/C ratios across a treatment group were compared to the T/C ratios of the control group using a two-tailed Welch's t-test.

[4] = Body weight and tolerability, TMD8 ABT-199/gemcitabine study (Example 9); conditions: alone or combined with Compound A; for % BW Change (Day Maximum): Compound A 60 mg/kg PO QD 14 d, ABT-199 25 mg/kg PO QD 14 d, gemcitabine 5 mg/kg IP Q3D x4; for Number of animals removed: Compound A 60 mg/kg, ABT-199 25 mg/kg, gemcitabine 5 mg/kg
Description: as §2, with “about 19” for “20”, “5.0×10^6 TMD8” for “4.0×10^6 OCI-Ly10”, “cells. Tumor growth was monitored with vernier calipers.” for “cells.”, “245” for “199”, “14” for “21”

TMD8 DLBCL xenografts [5] = assay: Antitumor activity in CB17 SCID mice bearing TMD8 DLBCL xenografts, ABT-199 or gemcitabine combination (Example 9); conditions: Day 14, alone or combined with Compound A; for TGI (%): Compound A 60 mg/kg PO QD, ABT-199 25 mg/kg PO QD, gemcitabine 5 mg/kg IP Q3D x4; for Mean Tumor Volume (mm^3) ± SEM / T/C: Compound A 60 mg/kg, ABT-199 25 mg/kg, gemcitabine 5 mg/kg
Description: Tumor growth inhibition was calculated on Day 14 of the study. The last measurement was taken on Day 29 of the study.
as §2, with “about 19” for “20”, “5.0×10^6 TMD8” for “4.0×10^6 OCI-Ly10”, “cells. Tumor growth was monitored with vernier calipers.” for “cells.”, “245” for “199”, “14” for “21”
as §3, §4, §5

[6] = Body weight and tolerability, OCI-LY10 gemcitabine study (Example 7)
Description: as §2

TMD8 DLBCL xenografts [7] = assay: Antitumor activity in CB17 SCID mice bearing TMD8 DLBCL xenografts, gemcitabine combination (Example 8); conditions: Day 14, alone or combined
Description: Tumor growth inhibition was calculated on Day 14 of the study. The last measurement was taken on Day 40 of the study.
as §2, with “19” for “20”, “5.0×10^6 TMD8” for “4.0×10^6 OCI-Ly10”, “cells. Tumor growth was monitored with vernier calipers.” for “cells.”, “215” for “199”, “into” for “into 6”, “14” for “21”
as §3
Drug combinations were assessed for synergy using observed AUC values. The change in AUC relative to the control was calculated for both single agent treatment groups as well as the combination group. The interaction between the two compounds was then assessed by comparing the change in AUC observed in the combination group to the sum of the changes observed in both single agents. The results can be divided into four categories: synergistic, additive, sub-additive, and antagonistic. Further details regarding combination analysis are provided in the Example 2.
as §5

[8] = Body weight and tolerability, TMD8 gemcitabine study (Example 8); conditions: alone or combined
Description: as §2, with “19” for “20”, “5.0×10^6 TMD8” for “4.0×10^6 OCI-Ly10”, “cells. Tumor growth was monitored with vernier calipers.” for “cells.”, “215” for “199”, “into” for “into 6”, “14” for “21”

OCI-LY 10 xenografts = assay: Antitumor activity in CB17 SCID mice bearing OCI-LY10 xenografts, ABT-199 combination (Example 11); conditions: Day 21
Description: Tumor growth inhibition was calculated on Day 21 of the study. The last measurement was taken on Day 46 of the study.
as §2, with “(Charles River Laboratories, about 21 g” for “(Taconic Biosciences; weight”, “start)” for “start was 20 g)”, “cells. Tumor growth was monitored with vernier calipers.” for “cells.”, “175” for “199”, “into” for “into 6”, “(n=5/group).” for “(n=8/group).”
as §3, §4, §5

[9] = Body weight and tolerability, OCI-LY10 ABT-199 study (Example 11)
Description: as §2, with “(Charles River Laboratories, about 21 g” for “(Taconic Biosciences; weight”, “start)” for “start was 20 g)”, “cells. Tumor growth was monitored with vernier calipers.” for “cells.”, “175” for “199”, “into” for “into 6”, “(n=5/group).” for “(n=8/group).”

[10] = tested on: Ly10 human lymphoma xenografts; assay: Antitumor activity in SCID mice bearing Ly10 xenografts, rituximab combination (Example 13); conditions: alone or combined
[11] = tested on: Ly19 human lymphoma xenografts; assay: Antitumor activity in SCID mice bearing Ly19 xenografts, rituximab combination (Example 14); conditions: alone or combined
[12] = tested on: OCI-Ly10 human lymphoma xenografts; assay: Antitumor activity in SCID mice bearing OCI-Ly10 human lymphoma xenografts, bendamustine and rituximab (Example 6); conditions: Day 21; Compound A 30 mg/kg PO QD x21; bendamustine 1 mg/kg IV BIW; rituximab 1 mg/kg IV QW x3; alone or combined
[13] = Compound A 60 mg/kg, ibrutinib 20 mg/kg
[14] = Compound A 60 mg/kg PO QD, gemcitabine 2.5 mg/kg IP Q3D, alone or combined
[15] = Compound A 60 mg/kg, gemcitabine 2.5 mg/kg, alone or combined
[16] = gemcitabine 5 mg/kg IP Q3D, alone or with Compound A 60 mg/kg PO QD
[17] = gemcitabine 5 mg/kg, alone or with Compound A 60 mg/kg
[18] = Compound A 60 mg/kg PO QD, gemcitabine 5 mg/kg IP Q3D x4
[19] = Compound A 60 mg/kg, gemcitabine 5 mg/kg
[20] = ABT-199 25 mg/kg, alone or with Compound A 60 mg/kg
[21] = Compound A 60 mg/kg, ABT-199 12.5 mg/kg, alone or combined
[22] = Day 21, Compound A 60 mg/kg PO QD x21, rituximab 1 mg/kg IV QW x3
[23] = Day 14, Compound A 60 mg/kg PO QD x14, rituximab 10 mg/kg IV QW x2

C=CC(=O)N1CCC[C@@H](n2nc(-c3ccc(Oc4ccccc4)cc3)c3c(N)ncnc32)C1 [ibrutinib]
TGI (%) ([1]; Compound A 60 mg/kg PO QD, ibrutinib 20 mg/kg PO QD): 0.5% | Mean Tumor Volume (mm^3) ± SEM [1, 13]: 1,085.2 ± 109.9 mm^3 | T/C [1, 13]: 1.00 | Number of animals removed [2]: 0 | TGI [3]: 18% | TGI ([3]; listed as Ibrutinib): 18.0%

Nc1ccn([C@@H]2O[C@H](CO)[C@@H](O)C2(F)F)c(=O)n1 [gemcitabine]
Mean Tumor Volume (mm^3) ± SEM (OCI-LY10 xenografts; [14]): 561.7 ± 52.5 mm^3 | TGI (%) (OCI-LY10 xenografts; [14]): 52.6% | T/C (OCI-LY10 xenografts; [15]): 0.47 | Mean Tumor Volume (mm^3) ± SEM (OCI-LY10 xenografts; [16]): 331.3 ± 57.6 mm^3 | TGI (%) (OCI-LY10 xenografts; [16]): 72.1% | T/C (OCI-LY10 xenografts; [17]): 0.28 | % BW Change (Day Maximum) [4]: −0.2 (11) % | Number of animals removed [4]: 0 | TGI (%) (TMD8 DLBCL xenografts [5]): 70.3% | Mean Tumor Volume (mm^3) ± SEM (TMD8 DLBCL xenografts [5]): 440.2 ± 70.9 mm^3 | T/C (TMD8 DLBCL xenografts [5]): 0.30 | % BW Change (Day Maximum) ([6]; Compound A 60 mg/kg PO QD 21 d, gemcitabine 2.5 mg/kg IP Q3D (4 doses), alone or combined): 7.5 (21) % | Number of animals removed [6, 15]: 0 | % BW Change (Day Maximum) ([6]; gemcitabine 5 mg/kg IP Q3D (4 doses), alone or with Compound A 60 mg/kg PO QD): −1.4 (3) % | Number of animals removed [6, 17]: 0 | Mean Tumor Volume (mm^3) ± SEM (TMD8 DLBCL xenografts [7]; [18]): 294.7 ± 36.5 mm^3 | TGI (%) (TMD8 DLBCL xenografts [7]; [18]): 67.1% | T/C (TMD8 DLBCL xenografts [7]; [19]): 0.33 | % BW Change (Day Maximum) ([8]; Compound A 60 mg/kg PO QD 14 d, gemcitabine 5 mg/kg IP Q3D x4): −0.1 (4) % | Number of animals removed [8, 19]: 0

CC1(C)CCC(CN2CCN(c3ccc(C(=O)NS(=O)(=O)c4ccc(NCC5CCOCC5)c([N+](=O)[O-])c4)c(Oc4cnc5[nH]ccc5c4)c3)CC2)=C(c2ccc(Cl)cc2)C1 [ABT-199, venetoclax]
% BW Change (Day Maximum) [4]: −0.4 (11) % | Number of animals removed [4]: 0 | TGI (%) (TMD8 DLBCL xenografts [5]): 29.1% | Mean Tumor Volume (mm^3) ± SEM (TMD8 DLBCL xenografts [5]): 1,048.9 ± 136.1 mm^3 | T/C (TMD8 DLBCL xenografts [5]): 0.71 | TGI (%) (OCI-LY 10 xenografts; ABT-199 25 mg/kg PO QD, alone or with Compound A 60 mg/kg PO QD): 9.2% | Mean Tumor Volume (mm^3) ± SEM (OCI-LY 10 xenografts; [20]): 950.3 ± 182.1 mm^3 | T/C (OCI-LY 10 xenografts; [20]): 0.91 | TGI (%) (OCI-LY 10 xenografts; Compound A 60 mg/kg PO QD, ABT-199 12.5 mg/kg PO QD, alone or combined): −0.4% | Mean Tumor Volume (mm^3) ± SEM (OCI-LY 10 xenografts; [21]): 1,050.6 ± 221.4 mm^3 | T/C (OCI-LY 10 xenografts; [21]): 1.00 | % BW Change (Day Maximum) ([9]; ABT-199 25 mg/kg PO QD 21 d, alone or with Compound A 60 mg/kg PO QD): −1.5 (14) % | Number of animals removed [9, 20]: 1 | % BW Change (Day Maximum) ([9]; Compound A 60 mg/kg PO QD 21 d, ABT-199 12.5 mg/kg PO QD 21 d, alone or combined): 4.6 (21) % | Number of animals removed [9, 21]: 0

rituximab
Mean Tumor Volume (mm^3) ± SEM at Day 21 [10, 22]: 301.8 ± 30.8 mm^3 | TGI (%) [10, 22]: 66.7% | dAUC ([10]; vs vehicle, Compound A 60 mg/kg, rituximab 1 mg/kg): 77.6 | Mean Tumor Volume (mm^3) ± SEM at Day 14 [11, 23]: 516.8 ± 113.3 mm^3 | TGI (%) [11, 23]: 79.5% | dAUC ([11]; vs vehicle, Compound A 60 mg/kg, rituximab 10 mg/kg): 61.8 | TGI [12]: 33.4%
